Where two headings read alike, the source gives them in different places.
Assays:
uninfected J774 cells = assay type: cell-based; settings: 48 h; for percentage of survival compared to untreated control: mouse
Description: The potential cytotoxicity of PZA toward the mammalian cell line was determined by co-incubation of PZA with uninfected J774 cells for 48 h (10^4 cells/well) in 96-well culture plates. […] At 200 μg/ml, the compound started to show signs of toxicity, resulting in mortality of 25% of the cell monolayer. […] The control drug amphotericin B caused 5% mortality of the cell monolayer at the concentration tested (1 μg/ml).
J774 cell viability following incubation with PZA was also determined. Cells were seeded onto 8-well Labtek chambers as above and incubated with different concentrations of PZA (up to 1 mg/ml) for 48 h, stained with Diff-Quick and counted under light microscope. The percentage of viable cells was determined after quantifying the number of cells present per field (in 25 fields, ca. 500 cells). Percentage of survival and MIC50 were calculated as above.

L. donovani = system: L. donovani
Description: To induce visceral leishmaniasis, we inoculated mice (n=8) intravenously with 5×10^6 L. donovani 1S and treated them with PZA (900-150 mg/kg) for 3 wks, 5 days/wk. The lowest dose was equivalent to dose of PZA used in humans (2 g/day). A group of mice treated with vehicle (3.8% DMSO in water) was included as a control. C57BL/6 mice infected with L. donovani typically show detectable parasites in liver and spleens for 8-12 wk. […] We euthanized mice 3 wks after the initiation of the experiment and determined total body weight, liver and spleen weights, and number of parasites in livers.

splenocytes = experiment: Lymphoproliferative response of splenocytes from L. donovani-infected treated mice; assay type: cell-based, C57BL/6 mice; settings: PZA-treated mice, dose dependent
Description: FIG. 5. PZA increases proliferation in treated splenocytes. Positive proliferation (measured as loss of CFSE staining at day 5) at 3 wk post infection in CFSE-stained splenocytes from C75BL/6 mice infected with L. donovani and treated with drug vehicle (3.8% DMSO, control) or increasing concentrations of PZA (n=3±SD), following in vitro restimulation with 25 μg/ml leishmanial antigen or 2 μg/ml concanavalin A.
VL typically induces T cell anergy toward leishmanial antigens.

[1] = system: dendritic cells lacking TLR-2 and -4; experiment: Activation of bone marrow-derived dendritic cells from TLR-2/-4 double knock out mice; assay type: cell-based
Description: FIG. 11. A. The immunostimulatory effect of PZA is independent of TLR engagement. Mean fluorescence values for the expression of CD80, CD86, MHC Class I and MHC Class II and B. IL-12, IL-10 and iNOS expression determined by flow cytometry in bone marrow-derived dendritic cells from TLR-2/-4 double knock out mice, infected or not with L. major, and treated with 10 and 100 μM PZA. Uninfected cells were treated with 10 U IFN-γ/100 ng/ml LPS as a positive control of activation. Unstimulated, untreated cells are also shown. Data are expressed as mean±standard deviation of n=3 determinations. *: Statistically significant P≦0.03; **: Statistically significant P≦0.005; ***: Statistically significant, P≦0.0001 when compared to the group infected with L. major and untreated.
In this experiment, we treated the dendritic cells as described above, in the presence or absence of L. major infection. Again as a positive control, cells were primed with IFN-γ and LPS. […] In the same way, the expression of IL-12, IL-10 and iNOS was increased in treated cells, irrespective of infection (FIG. 11B).

[2] = mouse models of VL (FIG. 8 legend)

NC(=O)c1cnccn1 [PZA, pyrazinamide]
mortality of the cell monolayer (uninfected J774 cells; PZA 200 μg/ml): 25% | mortality of the macrophages (uninfected J774 cells; PZA 1 mg/ml): 100% | percentage of survival compared to untreated control (uninfected J774 cells; 1 μg/ml): 100 ± 11% | percentage of survival compared to untreated control (uninfected J774 cells; 12.5 μg/ml): 100 ± 10% | percentage of survival compared to untreated control (uninfected J774 cells; 50 μg/ml): 100 ± 12% | percentage of survival compared to untreated control (uninfected J774 cells; 100 μg/ml): 100 ± 15% | percentage of survival compared to untreated control (uninfected J774 cells; 200 μg/ml): 85 ± 12% | percentage of survival compared to untreated control (uninfected J774 cells; 1000 μg/ml): 0% | size of livers and spleens (L. donovani; PZA 900-150 mg/kg, 3 wks): significantly reduced | liver parasites (L. donovani; PZA at all doses tested (900-150 mg/kg), 3 wks): significantly decreased | hepatomegaly and splenomegaly (L. donovani; [2]): prevented hepatomegaly and splenomegaly | reduction of liver parasites (L. donovani; [2]): 2-4 log 10 | proliferation of splenocytes to leishmanial antigens and concanavalin A (splenocytes): recovered their ability to proliferate | expression of activation markers and MHC Class molecules ([1]; 10 and 100 μM PZA, dose-dependent, TLR-2/-4 double knock out dendritic cells): increased expression of activation markers and MHC Class molecules | expression of IL-12, IL-10 and iNOS ([1]; PZA-treated cells, irrespective of infection): increased
